In ChEMBL document CHEMBL1131422, “N-(2-Benzoylphenyl)-L-tyrosine PPARgamma agonists. 1. Discovery of a novel series of potent antihyperglycemic and antihyperlipidemic agents” (J Med Chem, 1998):
The source made the active and inactive calls. The calls are words filed in the database; no cut-off is given here.

Species on record: Mus musculus
Test: Compound was tested for Antihyperlipidemic activity, activity is expressed as percent reduction of NEFAs
Type: functional
Conditions: not given

SMILES | Reduction [%]
Cc1oc(-c2ccccc2)nc1CCOc1ccc(C[C@H](Nc2ccccc2C(=O)c2ccccc2)C(=O)O)cc1 [FARGLITAZAR] | 56

Species on record: Mus musculus
Test: Compound was tested for Antihyperlipidemic activity, activity is expressed as percent reduction of Triglycerides
Type: functional
Conditions: not given

SMILES | Reduction [%]
Cc1oc(-c2ccccc2)nc1CCOc1ccc(C[C@H](Nc2ccccc2C(=O)c2ccccc2)C(=O)O)cc1 [FARGLITAZAR] | 54

These compounds were tested on Mus musculus (assay: Compound was tested in vivo for Antihyperglycemic activity in mice, activity is expressed as percent reduction of plasma glucose.). Conditions: not given.
Type: functional

SMILES | Reduction [%]
Cc1oc(-c2ccccc2)nc1CCOc1ccc(C[C@H](Nc2ccccc2C(=O)c2ccccc2)C(=O)O)cc1 [FARGLITAZAR] | 65

What follows are compounds tested against T1, Peroxisome proliferator-activated receptor delta (Mus musculus) (UniProt P35396) (assay: Compound was tested functionally in vitro for inducing 50% of the maximum alkaline phosphatase activity (Transactivation) against murine Peroxisome proliferator activated receptor delta using transfection assay in CV-1 cells; IA = Inactive at 10e-4 M). Conditions: not given.
T1 sequence (whole entry): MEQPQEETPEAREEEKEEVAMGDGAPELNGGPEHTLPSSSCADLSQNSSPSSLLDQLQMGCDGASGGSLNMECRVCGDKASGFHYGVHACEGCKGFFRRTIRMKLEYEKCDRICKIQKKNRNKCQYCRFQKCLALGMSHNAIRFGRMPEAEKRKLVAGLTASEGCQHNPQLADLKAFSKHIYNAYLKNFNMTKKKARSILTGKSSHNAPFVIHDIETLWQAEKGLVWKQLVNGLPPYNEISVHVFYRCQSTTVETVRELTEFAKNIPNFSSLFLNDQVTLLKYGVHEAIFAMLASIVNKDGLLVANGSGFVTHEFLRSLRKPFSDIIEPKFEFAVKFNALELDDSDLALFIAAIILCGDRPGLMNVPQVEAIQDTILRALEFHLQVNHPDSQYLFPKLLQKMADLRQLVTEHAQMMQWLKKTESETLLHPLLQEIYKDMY
Type: functional, cell-based

SMILES | Log EC50
Cc1oc(-c2ccccc2)nc1CCOc1ccc(C[C@H](Nc2ccccc2C(=O)c2ccccc2)C(=O)O)cc1 [FARGLITAZAR] | inactive

The compounds below were run against T2, Peroxisome proliferator-activated receptor gamma (Homo sapiens) (UniProt P37231) (assay: Compound was tested functionally in vitro for inducing 50% of the maximum alkaline phosphatase activity (Transactivation) against Peroxisome proliferator activated receptor gamma using transfection assay in CV-1 cells; IA = Inactive at 10e-4 M). Conditions: not given.
T2 sequence (whole entry): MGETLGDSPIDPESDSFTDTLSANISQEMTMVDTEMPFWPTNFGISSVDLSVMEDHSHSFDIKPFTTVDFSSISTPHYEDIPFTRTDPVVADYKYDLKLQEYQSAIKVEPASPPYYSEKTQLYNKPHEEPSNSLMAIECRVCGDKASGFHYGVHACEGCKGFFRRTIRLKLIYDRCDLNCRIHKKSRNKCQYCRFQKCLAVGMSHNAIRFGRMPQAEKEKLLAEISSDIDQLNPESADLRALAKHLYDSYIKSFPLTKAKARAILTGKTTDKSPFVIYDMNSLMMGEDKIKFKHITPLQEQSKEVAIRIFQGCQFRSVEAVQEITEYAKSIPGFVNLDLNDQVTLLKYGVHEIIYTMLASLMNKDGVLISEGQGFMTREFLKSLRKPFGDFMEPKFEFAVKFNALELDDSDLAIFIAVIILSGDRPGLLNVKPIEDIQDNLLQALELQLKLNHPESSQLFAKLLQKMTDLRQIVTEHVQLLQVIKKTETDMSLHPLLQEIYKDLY
Type: functional, cell-based

SMILES | Log EC50
COC(=O)[C@H](Cc1ccc(OCc2ccccc2)cc1)Nc1ccccc1C(=O)OCc1ccccc1 | inactive
O=C(c1ccccc1)c1ccc(N[C@@H](Cc2ccc(OCc3ccccc3)cc2)C(=O)O)cc1 | inactive
O=C(O)[C@H](Cc1ccc(OCc2ccccc2)cc1)Nc1ccccc1Cc1ccccc1 | inactive
COC(=O)[C@H](Cc1ccc(OCc2ccccc2)cc1)/N=C(\C)C1=C(O)c2ccccc2CC1 | inactive
COC(=O)[C@H](Cc1ccc(OCc2ccccc2)cc1)Nc1ccccc1C(=O)Nc1ccccc1 | inactive
O=C(c1ccccc1)c1cccc(N[C@@H](Cc2ccc(OCc3ccccc3)cc2)C(=O)O)c1 | inactive
C/C(O)=C/C(C)=N/[C@@H](Cc1ccc(OCc2ccccc2)cc1)C(=O)O | inactive

The compounds below were run against T3, Peroxisome proliferator-activated receptor alpha (Mus musculus) (UniProt P23204) (assay: Compound was tested functionally in vitro for inducing 50% of the maximum alkaline phosphatase activity (Transactivation) against murine Peroxisome proliferator activated receptor alpha using transfection assay in CV-1 cells; IA = Inactive at 10e-4 M). Conditions: not given.
T3 sequence (whole entry): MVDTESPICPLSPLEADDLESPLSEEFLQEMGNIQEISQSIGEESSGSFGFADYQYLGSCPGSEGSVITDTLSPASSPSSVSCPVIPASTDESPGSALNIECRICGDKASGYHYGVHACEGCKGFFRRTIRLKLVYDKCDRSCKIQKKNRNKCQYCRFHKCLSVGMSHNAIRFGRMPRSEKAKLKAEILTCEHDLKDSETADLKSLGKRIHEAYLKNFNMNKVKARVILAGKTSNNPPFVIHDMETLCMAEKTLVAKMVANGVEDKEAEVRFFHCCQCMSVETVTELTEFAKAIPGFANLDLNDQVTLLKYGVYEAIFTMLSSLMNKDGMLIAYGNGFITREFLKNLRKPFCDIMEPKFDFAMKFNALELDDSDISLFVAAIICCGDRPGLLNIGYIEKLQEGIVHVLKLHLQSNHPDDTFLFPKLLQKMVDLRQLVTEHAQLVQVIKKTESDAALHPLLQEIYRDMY
Type: functional, cell-based

SMILES | Log EC50
Cc1oc(-c2ccccc2)nc1CCOc1ccc(C[C@H](Nc2ccccc2C(=O)c2ccccc2)C(=O)O)cc1 [FARGLITAZAR] | inactive

Each compound was assayed on Rattus norvegicus (assay: Compound was tested in vivo for Antihyperglycemic activity in Zucker Diabetic fatty rats, activity is expressed as percent reduction of plasma glucose). Conditions: not given.
Type: functional

SMILES | Reduction [%]
Cc1oc(-c2ccccc2)nc1CCOc1ccc(C[C@H](Nc2ccccc2C(=O)c2ccccc2)C(=O)O)cc1 [FARGLITAZAR] | 65

Species on record: Rattus norvegicus
Test: Compound was tested for Antihyperlipidemic activity in Zucker Diabetic fatty rats, activity is expressed as percent reduction of NEFAs
Type: functional
Conditions: not given

SMILES | Reduction [%]
Cc1oc(-c2ccccc2)nc1CCOc1ccc(C[C@H](Nc2ccccc2C(=O)c2ccccc2)C(=O)O)cc1 [FARGLITAZAR] | 75

Species on record: Rattus norvegicus
Test: Compound was tested for Antihyperlipidemic activity in Zucker Diabetic fatty rats, activity is expressed as percent reduction of Triglycerides
Type: functional
Conditions: not given

SMILES | Reduction [%]
Cc1oc(-c2ccccc2)nc1CCOc1ccc(C[C@H](Nc2ccccc2C(=O)c2ccccc2)C(=O)O)cc1 [FARGLITAZAR] | 77

What follows are compounds tested on Rattus norvegicus (assay: Compound was tested in vivo for Antihyperglycemic activity in Zucker Diabetic fatty rats, activity is expressed as percent reduction of HbA1C.). Conditions: not given.
Type: functional

SMILES | Reduction [%]
Cc1oc(-c2ccccc2)nc1CCOc1ccc(C[C@H](Nc2ccccc2C(=O)c2ccccc2)C(=O)O)cc1 [FARGLITAZAR] | 33

What follows are compounds tested against T4, Peroxisome proliferator-activated receptor gamma (Homo sapiens, UniProt P37231) (assay: not given). Conditions: not given.
T4 sequence (P37231 whole entry): T2 sequence (whole entry)

SMILES | EC50 [nM]
CN(CCOc1ccc(CC(Nc2ccccc2Oc2ccccc2)C(=O)O)cc1)c1nc2ccccc2o1 (configuration not stated) | 107
CC(/C=C(\O)c1ccccc1)=N\[C@@H](Cc1ccc(OCc2ccccc2)cc1)C(N)=O | 490
CN(CCOc1ccc(CC(Nc2ccccc2C(=O)Cc2ccccc2)C(=O)O)cc1)c1nc2ccccc2o1 (configuration not stated) | 28.8
CN(CCOc1ccc(CC(Nc2ccccc2S(=O)(=O)c2ccccc2)C(=O)O)cc1)c1nc2ccccc2o1 (configuration not stated) | 1820
CN(CCOc1ccc(CC(Nc2cccc3c2C(=O)c2ccccc2-3)C(=O)O)cc1)c1nc2ccccc2o1 (configuration not stated) | 490
N[C@@H](Cc1ccc(OCc2ccccc2)cc1)C(=O)O | 2510

Biological target: T4, Peroxisome proliferator-activated receptor gamma
Test: not given
Conditions: not given
Remark: another data set of the same source

SMILES | Ki [nM]
CN(CCOc1ccc(CC(Nc2ccccc2Oc2ccccc2)C(=O)O)cc1)c1nc2ccccc2o1 (configuration not stated) | 3.72
CC(/C=C(\O)c1ccccc1)=N\[C@@H](Cc1ccc(OCc2ccccc2)cc1)C(N)=O | 1320
CN(CCOc1ccc(CC(Nc2ccccc2C(=O)Cc2ccccc2)C(=O)O)cc1)c1nc2ccccc2o1 (configuration not stated) | 3.31
COC(=O)[C@H](Cc1ccc(OCc2ccccc2)cc1)Nc1ccccc1C(=O)OCc1ccccc1 | > 3160
O=C(c1ccccc1)c1ccc(N[C@@H](Cc2ccc(OCc3ccccc3)cc2)C(=O)O)cc1 | 1260
CN(CCOc1ccc(CC(Nc2ccccc2S(=O)(=O)c2ccccc2)C(=O)O)cc1)c1nc2ccccc2o1 (configuration not stated) | 123
CN(CCOc1ccc(CC(Nc2cccc3c2C(=O)c2ccccc2-3)C(=O)O)cc1)c1nc2ccccc2o1 (configuration not stated) | 85.1
N[C@@H](Cc1ccc(OCc2ccccc2)cc1)C(=O)O | > 3160
O=C(O)[C@H](Cc1ccc(OCc2ccccc2)cc1)Nc1ccccc1Cc1ccccc1 | > 3160
COC(=O)[C@H](Cc1ccc(OCc2ccccc2)cc1)/N=C(\C)C1=C(O)c2ccccc2CC1 | > 3160
COC(=O)[C@H](Cc1ccc(OCc2ccccc2)cc1)Nc1ccccc1C(=O)Nc1ccccc1 | > 3160
O=C(c1ccccc1)c1cccc(N[C@@H](Cc2ccc(OCc3ccccc3)cc2)C(=O)O)c1 | > 3160
C/C(O)=C/C(C)=N/[C@@H](Cc1ccc(OCc2ccccc2)cc1)C(=O)O | 1950

The compounds below were run against T5, Peroxisome proliferator-activated receptor delta (Homo sapiens) (UniProt Q03181) (assay: not given). Conditions: CV-1; 10e-4 M.
T5 sequence (whole entry): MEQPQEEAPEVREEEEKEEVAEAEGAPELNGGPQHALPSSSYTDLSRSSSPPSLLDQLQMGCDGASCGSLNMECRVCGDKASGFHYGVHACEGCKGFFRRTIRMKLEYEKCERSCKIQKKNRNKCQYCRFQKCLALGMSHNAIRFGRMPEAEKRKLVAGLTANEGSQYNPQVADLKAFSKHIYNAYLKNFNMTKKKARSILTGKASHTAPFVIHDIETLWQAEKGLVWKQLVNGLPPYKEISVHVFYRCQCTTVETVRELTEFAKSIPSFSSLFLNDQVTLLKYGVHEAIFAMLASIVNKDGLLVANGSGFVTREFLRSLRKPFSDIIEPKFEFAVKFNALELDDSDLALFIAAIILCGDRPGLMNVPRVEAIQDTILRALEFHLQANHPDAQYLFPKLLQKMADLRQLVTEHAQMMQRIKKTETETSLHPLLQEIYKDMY

SMILES | Log EC50
Cc1oc(-c2ccccc2)nc1CCOc1ccc(C[C@H](Nc2ccccc2C(=O)c2ccccc2)C(=O)O)cc1 [FARGLITAZAR] | inactive

Species on record: Mus musculus
Test: Compound was tested for Antihyperlipidemic activity, activity is expressed as percent increase of body weight
Conditions: not given

SMILES | body weight increase % [%]
Cc1oc(-c2ccccc2)nc1CCOc1ccc(C[C@H](Nc2ccccc2C(=O)c2ccccc2)C(=O)O)cc1 [FARGLITAZAR] | 17
